Experimental data from US10821115B2, “Compounds that inhibit Mcl-1 protein” (priority 2017, dated 2020).
Read-outs that look alike come from different tables or passages of the source.

Experiments:
[1] = biological target: recombinant human Mcl-1 (residues 171-327) / Bim interaction (Homo sapiens (Human), UniProt Q07820); test: biochemical; format: binding; conditions: read-out: Mcl-1 HTRF IC50
[2] = tested on: human multiple myeloma cell line, OPM-2; test: Cell viability assay (OPM-2 10 FBS), CellTiter-Glo; format: cell-based
How it was run: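 3000 cells/well, RPMI 1640 + 10% FBS; serial compound dilutions, 16 h, 37 °C/5% CO2.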

[3] = TR-FRET, Mcl-1(171-327) / biotin-Bim (51-76)
[4] = Homo sapiens, OPM-2, 16 h, read-out: OPM-2 10% FBS IC50 IP, OPM-2 cells, 10% FBS, 16 h, CellTiter-Glo
[5] = read-out: OPM-2 10% FBS IC50 IP, OPM-2 cells, 10% FBS, 16 h, CellTiter-Glo

Chain of recombinant human Mcl-1 (residues 171-327) / Bim interaction (Q07820 171-327): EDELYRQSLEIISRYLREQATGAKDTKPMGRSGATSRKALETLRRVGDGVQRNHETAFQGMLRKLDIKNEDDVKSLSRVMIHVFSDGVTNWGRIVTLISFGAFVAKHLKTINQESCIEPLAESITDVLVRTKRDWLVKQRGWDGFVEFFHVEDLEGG

Row | Structure (SMILES) | IC50 [1, 3] | IC50 [2, 4] | IC50 [2, 5] | IC50 [1]
1 | C[C@@H]1[C@@H](C)C/C=C/[C@@](O)(COCCN2CCOCC2)[C@@H]2CC[C@H]2CN2C[C@@]3(CCCc4cc(Cl)ccc43)COc3ccc(cc32)C(=O)NS1(=O)=O [Example 100355, (1S,3′R,6′R,7′S,8′E,11′S,12′R)-6-chloro-7′-hydroxy-11′,12′-dimethyl-7′-((2-(4-morpholinyl)ethoxy)methyl)-3,4-dihydro-2H,15′H-spiro[naphthalene-1,22′-[20]oxa[13]thia[1,14]diazatetracyclo [14.7.2.0~3,6~.0~19,24~]pentacosa[8,16,18,24]tetraen]-15′-one 13′,13′-dioxide] | 0.535 nM | 776 nM | – | –
2 | C[C@@H]1[C@@H](C)C/C=C/[C@](O)(COCCN2CCOCC2)[C@@H]2CC[C@H]2CN2C[C@@]3(CCCc4cc(Cl)ccc43)COc3ccc(cc32)C(=O)NS1(=O)=O [Example 100356, (1S,3′R,6′R,7′R,8′E,11′S,12′R)-6-chloro-7′-hydroxy-11′,12′-dimethyl-7′-((2-(4-morpholinyl)ethoxy)methyl)-3,4-dihydro-2H,15′H-spiro[naphthalene-1,22′-[20]oxa[13]thia[1,14]diazatetracyclo [14.7.2.0~3,6~.0~19,24~]pentacosa[8,16,18,24]tetraen]-15′-one 13′,13′-dioxide] | 0.084 nM | 71 nM | – | –
3 | C[C@@H]1[C@@H](C)C/C=C/[C@@](O)(c2cnccn2)[C@@H]2CC[C@H]2CN2C[C@@]3(CCCc4cc(Cl)ccc43)COc3ccc(cc32)C(=O)NS1(=O)=O [Example 100357, (1S,3′R,6′R,7′S,8′E,11′S,12′R)-6-chloro-7′-hydroxy-11′,12′-dimethyl-7′-(2-pyrazinyl)-3,4-dihydro-2H,15′H-spiro[naphthalene-1,22′-[20]oxa[13]thia[1,14]diazatetracyclo [14.7.2.0~3,6~.0~19,24~]pentacosa[8,16,18,24]tetraen]-15′-one 13′,13′-dioxide] | 0.224 nM | 399 nM | – | –
4 | CO[C@]1(C[C@H](O)C(C)C)/C=C/C[C@H](C)[C@@H](C)S(=O)(=O)NC(=O)c2ccc3c(c2)N(C[C@@H]2CC[C@H]21)C[C@@]1(CCCc2cc(Cl)ccc21)CO3 [Example 100358, (1S,3′R,6′R,7′R,8′E,11′S,12′R)-6-chloro-7′-((2S)-2-hydroxy-3-methylbutyl)-7′-methoxy-11′,12′-dimethyl-3,4-dihydro-2H,15′H-spiro[naphthalene-1,22′-[20]oxa[13]thia[1,14]diazatetracyclo [14.7.2.0~3,6~.0~19,24~]pentacosa[8,16,18,24]tetraen]-15′-one 13′,13′-dioxide] | 0.118 nM | – | 81 nM | –
5 | CO[C@]1(C[C@H](O)C(C)C)/C=C/C[C@H](C)[C@@H](C)S(=O)(=O)NC(=O)c2ccc3c(c2)N(C[C@@H]2CC[C@H]21)C[C@@]1(CCCc2cc(Cl)ccc21)CO3 [Example 100359, (1S,3′R,6′R,7′R,8′E,11′S,12′R)-6-chloro-7′-((2S)-2-hydroxy-3-methylbutyl)-7′-methoxy-11′,12′-dimethyl-3,4-dihydro-2H,15′H-spiro[naphthalene-1,22′-[20]oxa[13]thia[1,14]diazatetracyclo [14.7.2.0~3,6~.0~19,24~]pentacosa[8,16,18,24]tetraen]-15′-one 13′,13′-dioxide] | 1.2 nM | – | 1540 nM | –
6 | C[C@@H]1[C@@H](C)C/C=C/[C@](O)(c2ccncn2)[C@@H]2CC[C@H]2CN2C[C@@]3(CCCc4cc(Cl)ccc43)COc3ccc(cc32)C(=O)NS1(=O)=O [Example 100361, (1S,3′R,6′R,7′R,8′E,11′S,12′R)-6-chloro-7′-hydroxy-11′,12′-dimethyl-7′-(4-pyrimidinyl)-3,4-dihydro-2H,15′H-spiro[naphthalene-1,22′-[20]oxa[13]thia[1,14]diazatetracyclo [14.7.2.0~3,6~.0~19,24~]pentacosa[8,16,18,24]tetraen]-15′-one 13′,13′-dioxide] | 0.208 nM | 155 nM | – | –
7 | CO[C@]1(CC(=O)C(C)C)/C=C/C[C@H](C)[C@@H](C)S(=O)(=O)NC(=O)c2ccc3c(c2)N(C[C@@H]2CC[C@H]21)C[C@@]1(CCCc2cc(Cl)ccc21)CO3 [Example 100363, (1S,3′R,6′R,7′R,8′E,11′S,12′R)-6-chloro-7′-methoxy-11′,12′-dimethyl-7′-(3-methyl-2-oxobutyl)-3,4-dihydro-2H,15′H-spiro[naphthalene-1,22′-[20]oxa[13]thia[1,14]diazatetracyclo [14.7.2.0~3,6~.0~19,24~]pentacosa[8,16,18,24]tetraen]-15′-one 13′,13′-dioxide] | – | 3810 nM | – | 1.38 nM
8 | CO[C@@]1(CCOS(C)(=O)=O)/C=C/C[C@H](C)[C@@H](C)S(=O)(=O)NC(=O)c2ccc3c(c2)N(C[C@@H]2CC[C@H]21)C[C@@]1(CCCc2cc(Cl)ccc21)CO3 [Example 100364, 2-((1S,3′R,6′R,7′S,8′E,11′S,12′R)-6-chloro-7′-methoxy-11′,12′-dimethyl-13′,13′-dioxido-15′-oxo-3,4-dihydro-2H-spiro[naphthalene-1,22′-[20]oxa[13]thia[1,14]diazatetracyclo [14.7.2.0~3,6~.0~19,24~]pentacosa[8,16,18,24]tetraen]-7′-yl)ethyl methanesulfonate] | 1.16 nM | 1680 nM | – | –
9 | CO[C@]1(CCN2CCOCC2)/C=C/C[C@H](C)[C@@H](C)S(=O)(=O)NC(=O)c2ccc3c(c2)N(C[C@@H]2CC[C@H]21)C[C@@]1(CCCc2cc(Cl)ccc21)CO3 [Example 100365, (1S,3′R,6′R,7′R,8′E,11′S,12′R)-6-chloro-7′-methoxy-11′,12′-dimethyl-7′-(2-(4-morpholinyl)ethyl)-3,4-dihydro-2H,15′H-spiro[naphthalene-1,22′-[20]oxa[13]thia[1,14]diazatetracyclo [14.7.2.0~3,6~.0~19,24~]pentacosa[8,16,18,24]tetraen]-15′-one 13′,13′-dioxide] | 0.257 nM | 245 nM | – | –
10 | C[C@@H]1[C@@H](C)C/C=C/[C@](O)(c2ccncc2F)[C@@H]2CC[C@H]2CN2C[C@@]3(CCCc4cc(Cl)ccc43)COc3ccc(cc32)C(=O)NS1(=O)=O [Example 100368, (1S,3′R,6′R,7′R,8′E,11′S,12′R)-6-chloro-7′-(3-fluoro-4-pyridinyl)-7′-hydroxy-11′,12′-dimethyl-3,4-dihydro-2H,15′H-spiro[naphthalene-1,22′-[20]oxa[13]thia[1,14]diazatetracyclo [14.7.2.0~3,6~.0~19,24~]pentacosa[8,16,18,24]tetraen]-15′-one 13′,13′-dioxide] | 0.377 nM | 611 nM | – | –
11 | COCC[C@]1(OC)/C=C/C[C@H](C)[C@@H](C)S(=O)(=O)NC(=O)c2ccc3c(c2)N(C[C@@H]2CC[C@H]21)C[C@@]1(CCCc2cc(Cl)ccc21)CO3 [Example 100369, (1S,3′R,6′R,7′S,8′E,11′S,12′R)-6-chloro-7′-methoxy-7′-(2-methoxyethyl)-11′,12′-dimethyl-3,4-dihydro-2H,15′H-spiro[naphthalene-1,22′-[20]oxa[13]thia[1,14]diazatetracyclo [14.7.2.0~3,6~.0~19,24~]pentacosa[8,16,18,24]tetraen]-15′-one 13′,13′-dioxide] | 2.83 nM | 9920 nM | – | –
12 | C[C@@H]1[C@@H](C)CCC[C@@](O)(C#CCCN2CCOCC2)[C@@H]2CC[C@H]2CN2C[C@@]3(CCCc4cc(Cl)ccc43)COc3ccc(cc32)C(=O)NS1(=O)=O [Example 100371, (1S,3′R,6′R,7′S,11′S,12′R)-6-chloro-7′-hydroxy-11′,12′-dimethyl-7′-(4-(4-morpholinyl)-1-butyn-1-yl)-3,4-dihydro-2H,15′H-spiro[naphthalene-1,22′-[20]oxa[13]thia[1,14]diazatetracyclo [14.7.2.0~3,6~.0~19,24~]pentacosa[16,18,24]trien]-15′-one 13′,13′-dioxide] | 0.39 nM | – | 307 nM | –
13 | C[C@@H]1[C@@H](C)CCC[C@@](O)(C#CCCN2CCOCC2)[C@@H]2CC[C@H]2CN2C[C@@]3(CCCc4cc(Cl)ccc43)COc3ccc(cc32)C(=O)NS1(=O)=O [Example 100372, (1S,3′R,6′R,7′S,11S,12R)-6-chloro-7′-hydroxy-11′,12′-dimethyl-7′-(4-(4-morpholinyl)-1-butyn-1-yl)-3,4-dihydro-2H,15′H-spiro[naphthalene-1,22′-[20]oxa[13]thia[1,14]diazatetracyclo [14.7.2.0~3,6~.0~19,24~]pentacosa[16,18,24]trien]-15′-one 13′,13′-dioxide] | 0.165 nM | – | 833 nM | –
14 | CO[C@@]1(CC(=O)C(C)C)/C=C/C[C@H](C)[C@@H](C)S(=O)(=O)NC(=O)c2ccc3c(c2)N(C[C@@H]2CC[C@H]21)C[C@@]1(CCCc2cc(Cl)ccc21)CO3 [Example 100373, (1S,3′R,6′R,7′S,8′E,11′S,12′R)-6-chloro-7′-methoxy-11′,12′-dimethyl-7′-(3-methyl-2-oxobutyl)-3,4-dihydro-2H,15′H-spiro[naphthalene-1,22′-[20]oxa[13]thia[1,14]diazatetracyclo [14.7.2.0~3,6~.0~19,24~]pentacosa[8,16,18,24]tetraen]-15′-one 13′,13′-dioxide] | – | 736 nM | – | 0.318 nM
15 | CO[C@@]1(CC(=O)N(C)CC(F)(F)F)/C=C/C[C@H](C)[C@@H](C)S(=O)(=O)NC(=O)c2ccc3c(c2)N(C[C@@H]2CC[C@H]21)C[C@@]1(CCCc2cc(Cl)ccc21)CO3 [Example 100375, 2-((1S,3′R,6′R,7′S,8′E,11′S,12′R)-6-chloro-7′-methoxy-11′,12′-dimethyl-13′,13′-dioxido-15′-oxo-3,4-dihydro-2H-spiro[naphthalene-1,22′-[20]oxa[13]thia[1,14]diazatetracyclo [14.7.2.0~3,6~.0~19,24~]pentacosa[8,16,18,24]tetraen]-7′-yl)-N-methyl-N-(2,2,2-trifluoroethyl)acetamide] | 0.07 nM | 176 nM | – | –
